{"source": "patent US20100029729A1", "about": "“COMPOUNDS” (priority 2008, published 2010)", "origin": "cited, not measured here", "key": {"[1]": {"details": "clinical studies, first 24 hours of treatment"}, "circulating lymphocytes": {"test_system": "circulating lymphocytes", "details": "animals and man"}}}
{"smiles": "CCCCCCCCc1ccc(CCC(N)(CO)CO)cc1", "note": "[FTY720]", "values": [{"measurement": "bradycardia", "setting": "[1]", "result": "results in bradycardia in the first 24 hours of treatment"}, {"measurement": "effect on circulating lymphocytes", "setting": "circulating lymphocytes", "result": "reduce circulating lymphocytes in animals and man"}]}
